Key:
Format in all cases: in vivo
Setaria viridis = test: Test Example 4: herbicidal effect by soil treatment (symbol G); conditions: application herbicide amount 320 g/ha
Summary of the method: (§1)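 Seeds were sown in sterilized diluvial soil, covered with about 1.5 cm of soil, and the soil surface was sprayed with a water-diluted emulsion of the compound at a predetermined rate. Plants grew in a greenhouse at 25° C. to 30° C.; effects were scored visually 3 weeks after application.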

Alopecurus myosuroides [1] = test: Test Example 5: herbicidal effect by foliage application, plastic box (symbol J); conditions: 320 g/ha, 3 weeks after application
Summary of the method: (§2)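 Emulsion formulation, diluted with water to the intended rate, was applied uniformly to leaves by small sprayer. Recipients were 14-day greenhouse-grown seedlings (25° C. to 30° C.). Assessment followed at 3 weeks.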

Stellaria media [2] = test: Test Example 4: herbicidal effect by soil treatment (symbol P); conditions: application herbicide amount 320 g/ha
Summary of the method: as §1

Stellaria media [3] = test: Test Example 5: herbicidal effect by foliage application, plastic box (symbol P); conditions: 320 g/ha, 3 weeks after application
Summary of the method: as §2

[4] = test system: Echinochloa crus-galli var. crus-galli; test: Test Example 3: herbicidal effect by foliage application, Wagner pot (symbol H); conditions: application herbicide amount 320 g/ha, Table 24
Summary of the method: (§3)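 In a shallow-flooded alluvial soil system held at 25–30 °C, plants including rice grew for 14 days and were then sprayed over the foliage with emulsion diluted to a fixed herbicide amount. Visual rating followed at 3 weeks.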

Leptochloa chinensis = test: Test Example 3: herbicidal effect by foliage application, Wagner pot (symbol D); conditions: application herbicide amount 320 g/ha, Table 24
Summary of the method: as §3

[5] = test system: Echinochloa crus-galli var. crus-galli; test: Test Example 5: herbicidal effect by foliage application, plastic box (symbol H); conditions: 320 g/ha, 3 weeks after application
Summary of the method: as §2

Lolium multiflorum Lam. = test: Test Example 4: herbicidal effect by soil treatment (symbol K); conditions: application herbicide amount 320 g/ha
Summary of the method: as §1

Scirpus juncoides = test: Test Example 2: herbicidal activity, application during weed generation in submerged conditions (symbol B); conditions: Table 23; application herbicide amount 320 g/ha; grade 0-5 by criteria of Test Example 1
Summary of the method: (§4)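 Compound was applied as a water-diluted emulsion into the standing water of flooded pots (4 cm) once co-sown weeds reached one to two leaves. Greenhouse temperature was 25° C. to 30° C., soil was alluvial, and each species was rated visually after 3 weeks.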

rice = test: Test Example 4: effect on crop by soil treatment (symbol b); conditions: application herbicide amount 320 g/ha
Summary of the method: (§5)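 Soil-treatment setup: crop and weed seeds were spot-sown into sterilized diluvial soil, then buried beneath approximately 1.5 cm of it, and the boxes were housed in a 25–30° C. greenhouse.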

Amaranthus retroflexus = test: Test Example 5: herbicidal effect by foliage application, plastic box (symbol N); conditions: 320 g/ha, 3 weeks after application
Summary of the method: as §2

Monochoria vaginalis = test: Test Example 2: herbicidal activity, application during weed generation in submerged conditions (symbol C); conditions: Table 23; application herbicide amount 320 g/ha; grade 0-5 by criteria of Test Example 1
Summary of the method: as §4

rice plant = test: Test Example 5: effect on crop by foliage application, plastic box (symbol b); conditions: 320 g/ha, 3 weeks after application
Summary of the method: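 Foliage-application test plants come from spot sowing in sterilized diluvial soil under a soil layer of about 1.5 cm, grown at 25° C. to 30° C. in a greenhouse.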

[6] = test system: Echinochloa oryzacola Vasing.; test: Test Example 2: herbicidal activity, application during weed generation in submerged conditions (symbol A); conditions: Table 23; application herbicide amount 320 g/ha; grade 0-5 by criteria of Test Example 1
Summary of the method: as §4

Digitaria ciliaris = test: Test Example 4: herbicidal effect by soil treatment (symbol F); conditions: application herbicide amount 320 g/ha
Summary of the method: as §1

Avena fatua = test: Test Example 4: herbicidal effect by soil treatment (symbol I); conditions: application herbicide amount 320 g/ha
Summary of the method: as §1

Chenopodium album = test: Test Example 5: herbicidal effect by foliage application, plastic box (symbol O); conditions: 320 g/ha, 3 weeks after application
Summary of the method: as §2

wheat = test: Test Example 4: effect on crop by soil treatment (symbol e); conditions: application herbicide amount 320 g/ha
Summary of the method: as §5

Veronica persica = test: Test Example 4: herbicidal effect by soil treatment (symbol R); conditions: application herbicide amount 320 g/ha
Summary of the method: as §1

Alopecurus myosuroides [7] = test: Test Example 4: herbicidal effect by soil treatment (symbol J); conditions: application herbicide amount 320 g/ha
Summary of the method: as §1

SMILES	Herbicidal effect grade, G: Setaria viridis (Setaria viridis)	J: Alopecurus myosuroides, herbicidal effect grade (Alopecurus myosuroides [1])	Herbicidal effect grade, P: Stellaria media (Stellaria media [2])	P: Stellaria media, herbicidal effect grade (Stellaria media [3])	H (Echinochloa crus-galli var. crus-galli) herbicidal effect grade [4]	D (Leptochloa chinensis) herbicidal effect grade (Leptochloa chinensis)	H: Echinochloa crus-galli var. crus-galli, herbicidal effect grade [5]	Herbicidal effect grade, K: Lolium multiflorum Lam. (Lolium multiflorum Lam.)	Herbicidal effect grade, B: Scirpus juncoides (Scirpus juncoides)	Effect on crop grade, b: directly sowed rice plant (rice)	N: Amaranthus retroflexus, herbicidal effect grade (Amaranthus retroflexus)	Herbicidal effect grade, C: Monochoria vaginalis (Monochoria vaginalis)	b: directly sowed rice plant, effect on crop grade (rice plant)	Herbicidal effect grade, A: Echinochloa oryzacola Vasing. [6]	Herbicidal effect grade, F: Digitaria ciliaris (Digitaria ciliaris)	Herbicidal effect grade, I: Avena fatua (Avena fatua)	O: Chenopodium album, herbicidal effect grade (Chenopodium album)	Effect on crop grade, e: wheat (wheat)	Herbicidal effect grade, R: Veronica persica (Veronica persica)	Herbicidal effect grade, J: Alopecurus myosuroides (Alopecurus myosuroides [7])
COCCON=C(C)CC1CC(O)=C(c2c(C)cc(-n3cc(Cl)cn3)cc2C)C1=O (stereo not drawn) [9-016]	5 (Herbicidal ratio of 90% or more (almost completely withered))	5 (Herbicidal ratio of 90% or more (almost completely withered))	0 (Herbicidal ratio of 5% or lower (almost no effect))	3 (Herbicidal ratio of 40% or higher and lower than 70%)	5 (Herbicidal ratio of 90% or more (almost completely withered))	5 (Herbicidal ratio of 90% or more (almost completely withered))	5 (Herbicidal ratio of 90% or more (almost completely withered))	5 (Herbicidal ratio of 90% or more (almost completely withered))	4 (Herbicidal ratio of 70% or higher and lower than 90%)	5 (Herbicidal ratio of 90% or more (almost completely withered))	0 (Herbicidal ratio of 5% or lower (almost no effect))	1 (Herbicidal ratio of 5% or higher and lower than 20%)	5 (Herbicidal ratio of 90% or more (almost completely withered))	5 (Herbicidal ratio of 90% or more (almost completely withered))	5 (Herbicidal ratio of 90% or more (almost completely withered))	2 (Herbicidal ratio of 20% or higher and lower than 40%)	2 (Herbicidal ratio of 20% or higher and lower than 40%)	0 (Herbicidal ratio of 5% or lower (almost no effect))	0 (Herbicidal ratio of 5% or lower (almost no effect))	5 (Herbicidal ratio of 90% or more (almost completely withered))
COCCON=C(CC1CC(O)=C(c2c(C)cc(Br)cc2C)C1=O)C1CC1 (stereo not drawn) [9-019]	5 (Herbicidal ratio of 90% or more (almost completely withered))	4 (Herbicidal ratio of 70% or higher and lower than 90%)	0 (Herbicidal ratio of 5% or lower (almost no effect))	0 (Herbicidal ratio of 5% or lower (almost no effect))	5 (Herbicidal ratio of 90% or more (almost completely withered))	5 (Herbicidal ratio of 90% or more (almost completely withered))	5 (Herbicidal ratio of 90% or more (almost completely withered))	3 (Herbicidal ratio of 40% or higher and lower than 70%)	0 (Herbicidal ratio of 5% or lower (almost no effect))	5 (Herbicidal ratio of 90% or more (almost completely withered))	0 (Herbicidal ratio of 5% or lower (almost no effect))	0 (Herbicidal ratio of 5% or lower (almost no effect))	3 (Herbicidal ratio of 40% or higher and lower than 70%)	3 (Herbicidal ratio of 40% or higher and lower than 70%)	0 (Herbicidal ratio of 5% or lower (almost no effect))	0 (Herbicidal ratio of 5% or lower (almost no effect))	0 (Herbicidal ratio of 5% or lower (almost no effect))	0 (Herbicidal ratio of 5% or lower (almost no effect))	0 (Herbicidal ratio of 5% or lower (almost no effect))	5 (Herbicidal ratio of 90% or more (almost completely withered))
COCCON=C(CC1CC(O)=C(c2c(C)cc(-n3cc(Cl)cn3)cc2C)C1=O)C(C)C (stereo not drawn) [9-022]	5 (Herbicidal ratio of 90% or more (almost completely withered))	2 (Herbicidal ratio of 20% or higher and lower than 40%)	0 (Herbicidal ratio of 5% or lower (almost no effect))	0 (Herbicidal ratio of 5% or lower (almost no effect))	5 (Herbicidal ratio of 90% or more (almost completely withered))	5 (Herbicidal ratio of 90% or more (almost completely withered))	5 (Herbicidal ratio of 90% or more (almost completely withered))	0 (Herbicidal ratio of 5% or lower (almost no effect))	0 (Herbicidal ratio of 5% or lower (almost no effect))	4 (Herbicidal ratio of 70% or higher and lower than 90%)	0 (Herbicidal ratio of 5% or lower (almost no effect))	0 (Herbicidal ratio of 5% or lower (almost no effect))	5 (Herbicidal ratio of 90% or more (almost completely withered))	4 (Herbicidal ratio of 70% or higher and lower than 90%)	5 (Herbicidal ratio of 90% or more (almost completely withered))	0 (Herbicidal ratio of 5% or lower (almost no effect))	0 (Herbicidal ratio of 5% or lower (almost no effect))	0 (Herbicidal ratio of 5% or lower (almost no effect))	0 (Herbicidal ratio of 5% or lower (almost no effect))	0 (Herbicidal ratio of 5% or lower (almost no effect))

Reference: US11000033B2, “Ketone or oxime compound, and herbicide” (NISSAN CHEMICAL CORPORATION, priority 2014, dated 2021)
